Experimental findings from ChEMBL document CHEMBL6182865, “Discovery of potent free fatty acid receptor 1 full agonists with a novel scaffold bearing conjugated double bond linker” (Bioorg Med Chem, 2025) are described below.

Calls of active or inactive are those of the source. No cut-off for these calls is given here.

The target of experiment [1] is T1, Free fatty acid receptor 1 (Homo sapiens, UniProt O14842). The experiment is described as follows: Agonist activity at GPR40 (unknown origin) expressed in HEK293 cells assessed as intracellular inositol phosphate accumulation incubated for 30 mins by IP-one HTRF analysis. It is filed as functional, cell-based. Background: In TR-FRET formats the signal depends on donor and acceptor labels being close together.

Experiment [2] concerns the target T1, Free fatty acid receptor 1. Nature of the experiment: Agonist activity at GPR40 (unknown origin) expressed in HEK293 cells assessed as intracellular cAMP level incubated for 30 mins by LANCE Ultra cAMP kit based multiplate reader analysis. The format is functional, cell-based. On the technique in general: Changes in cAMP serve as a functional read-out for many G protein-coupled receptors.

For experiment [3], the system named is Mus musculus. The experiment is described as follows: Hypoglycemic effect in male C57BL/6 mouse assessed as reduction in blood glucose level at 3 mg/kg, po preadministered with compound for 60 mins followed by glucose administration at 0 hrs and measured up to 90 mins by oral glucose tolerance test. It is filed as functional, organism-based. Conditions: time <= 150.0 min.

Experiment [4] deals with T1, Free fatty acid receptor 1. The experiment is described as follows: Partial agonist activity at GPR40 (unknown origin) expressed in HEK293 cells assessed as intracellular inositol phosphate accumulation by measuring maximum efficacy incubated for 30 mins by IP-one HTRF analysis relative to control. It is filed as functional, cell-based. Conditions: filed as partial agonist.

Experiment [5] relates to Mus musculus. The experiment is described as follows: Hypoglycemic effect in male C57BL/6 mouse assessed as reduction in blood glucose level at 30 mg/kg, po preadministered with compound for 60 mins followed by glucose administration at 0 hrs and measured up to 90 mins by oral glucose tolerance test. It is filed as functional, organism-based. Conditions: time <= 150.0 min.

For experiment [6], the system named is Mus musculus. Nature of the experiment: Hypoglycemic effect in male C57BL/6 mouse assessed as reduction in blood glucose level at 10 mg/kg, po preadministered with compound for 60 mins followed by glucose administration at 0 hrs and measured up to 90 mins by oral glucose tolerance test. The format is functional, organism-based. The settings on record: time <= […] min.

In experiment [7] the test system is Mus musculus. Nature of the experiment: Hypoglycemic effect in male po dosed C57BL/6 mouse preadministered with compound for 60 mins followed by glucose administration at 0 hrs and measured up to 90 mins by oral glucose tolerance test. The format is functional, organism-based. Conditions: dose 3-30 mg/kg, time <= 150.0 min.

T1 sequence (O14842 whole entry): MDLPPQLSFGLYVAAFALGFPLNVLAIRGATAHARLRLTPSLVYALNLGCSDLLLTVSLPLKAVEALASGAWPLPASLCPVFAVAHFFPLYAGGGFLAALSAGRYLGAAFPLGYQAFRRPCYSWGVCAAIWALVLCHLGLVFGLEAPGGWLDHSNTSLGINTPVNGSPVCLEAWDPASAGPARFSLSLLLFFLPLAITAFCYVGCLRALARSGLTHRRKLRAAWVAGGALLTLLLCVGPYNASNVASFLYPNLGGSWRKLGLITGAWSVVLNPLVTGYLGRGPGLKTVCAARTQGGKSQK

A word on the EC50: it is the midpoint of the concentration-response curve. Turning to `COc1ccc(OCC2CC2)c(/C=C(C)/C=C/COc2cccc(C(CC(=O)O)C3CC3)c2)c1` (stereo not drawn), the results for the half-maximal effective concentration (EC50) in experiment [1] and in experiment [2] were 367 nM and over 10000 nM, respectively.

As to `COc1ccc(F)c(CCCOc2cccc(C(CC(=O)O)C3CC3)c2)c1` (stereo not drawn), the EC50 in experiment [1] and in experiment [2] was over 10000 nM in each case.

Turning to `COc1ccc(OC)c(/C=C(C)/C=C/COc2cccc(C(CC(=O)O)C3CC3)c2)c1` (stereo not drawn), the EC50 in experiment [1] is 894 nM; in experiment [2] it was over 10000 nM.

For the compound `COc1ccc(OCc2ccccc2)c(/C=C(C)/C=C/COc2cccc(C(CC(=O)O)C3CC3)c2)c1` (stereo not drawn), the EC50 in experiment [1] is 204 nM; in experiment [2], over 10000 nM.

Turning to `COc1ccc(OCCC(C)(C)C)c(/C=C(C)/C=C/COc2cccc([C@H](C3CC3)[C@](C)(F)C(=O)O)c2)c1`, the concentration giving a half-maximal response (EC50) in experiment [1] is 1050 nM; in experiment [2], over 10000 nM.

For `COc1ccc(OCCCC(C)C)c(/C=C(C)/C=C/COc2cccc(C(CC(=O)O)C3CC3)c2)c1` (stereo not drawn), the figures for the concentration for a half-maximal effect (EC50) in experiment [1] and in experiment [2] were 134 nM and 6870 nM, respectively.

As for `COc1cc(/C=C(C)/C=C/COc2cccc(C(CC(=O)O)C3CC3)c2)cc(OCc2ccc(Cl)cc2F)c1` (stereo not drawn), the figures for the 50% effective concentration (EC50) in experiment [1] and in experiment [2] were 1360 nM and over 10000 nM, respectively.

On to `COc1ccc(F)c(CCCCOc2cccc(C(CC(=O)O)C3CC3)c2)c1` (stereo not drawn), for which the figures for the EC50 in experiment [1] and in experiment [2] were 6700 nM and over 10000 nM, respectively.

Take `COc1ccc(F)c(CCCCCCOc2cccc(C(CC(=O)O)C3CC3)c2)c1` (stereo not drawn): the half-maximal effective concentration (EC50) in experiment [1] and in experiment [2] was over 10000 nM each time.

With `COc1ccc(F)c(/C=C/C=C/COc2cccc(C(CC(=O)O)C3CC3)c2)c1` (stereo not drawn), the concentration for a half-maximal effect (EC50) in experiment [1] was 1770 nM; in experiment [2], over 10000 nM.

With `COc1cc(/C=C(C)/C=C/COc2cccc(C(CC(=O)O)C3CC3)c2)cc(OCCC(C)(C)C)c1` (stereo not drawn), the half-maximal effective concentration (EC50) was 943 nM in experiment [1] and over 10000 nM in experiment [2].

For the compound `COc1ccc(C(=O)N(CC(C)(C)C)c2cccc(C)n2)c(N2CCC(COc3cc([C@@H](CC(=O)O)C4CC4)ccn3)CC2)c1`, the result in experiment [3] was Active. The concentration giving a half-maximal response (EC50) in experiment [1] was 1.11 nM; in experiment [2], 87.9 nM.

By Emax is commonly meant the maximal effect, on the per cent scale that the assay sets. For `Cc1cc(OCCCS(C)(=O)=O)cc(C)c1-c1cccc(COc2ccc3c(c2)OC[C@H]3CC(=O)O)c1`, in experiment [4], the Emax stood at 77.8%.

Take `CCCOc1ccc(OC)cc1/C=C(C)/C=C/COc1cccc(C(CC(=O)O)C2CC2)c1` (stereo not drawn): the EC50 is 364 nM in experiment [1] and over 10000 nM in experiment [2].

For `COc1ccc(OCCC(C)(C)C)c(/C=C(C)/C=C/COc2cccc([C@H](C3CC3)[C@@](C)(F)C(=O)O)c2)c1`, the EC50 in experiment [1] is 3.23 nM; in experiment [2], 261 nM. Besides, the Activity entry is “Active; Compound Showed Better Effect Compared With Standard Drug(Sco-267)” in experiment [5] and “Dose-dependent-effect” in experiment [7]. Besides, the outcome in experiment [6] was Active.
